# Literature values as cited in US20030199483A1, “Aldosterone receptor antagonist and alpha-adrenergic modulating agent combination therapy for prevention or treatment of pathogenic conditions” (priority 2002, published 2003).
# Tested on: myocardial fibrosis in animal models
smiles,measurement,setting,value
"CC(=O)S[C@@H]1CC2=CC(=O)CC[C@]2(C)[C@H]2CC[C@@]3(C)[C@@H](CC[C@@]34CCC(=O)O4)[C@H]12 [spironolactone, 17-hydroxy-7α-mercapto-3-oxo-17α-pregn-4-ene-21-carboxylic acid γ-lactone acetate]",myocardial fibrosis,D. Klug et al 1993,prevents myocardial fibrosis
same,fibrosis,"irrespective of the development of left ventricular hypertrophy and the presence of hypertension, C. G. Brilla et al 1993",prevent fibrosis
